Data: patent publication US20050063956A1, “Method and device for attracting insects” (Colorado State University Research Foundation, priority 1998, published 2005)
Entries after “also recorded” stand apart in the source; their conditions may differ.

Assays:
Reticulitermes tibialis = test: T-tube choice-test behavioral bioassay with CO2; assay type: in vivo
Description: (§1) Behavioral bioassay apparatus: The choice-test bioassay apparatus was constructed from a glass T-tube (5 mm inside diameter, 5 mm stem, with each branch 4.5 cm long). Each branch of the ‘T’ was bent downward (2.5 cm from the junction of the ‘T’) at a 45° angle to form a pitfall trap. A 5 mm NMR cap (cat. no. 100-0050, Drummond Scientific, Broomall, Pa.) with a 1 mm pinhole in it was firmly pushed over the end of each bent branch. A 25 cm length of Teflon tubing (0.8 mm inside diameter) was inserted 3 mm into the hole in each NMR cap and the other end of the tubing was connected to a 35 ml polyethylene syringe (cat. no. 106-0490, Sherwood Medical, St. Louis, Mo.). The two 35-ml syringes were connected to a syringe pump which was adjusted to provide an airflow of 1 ml per min into each choice arm of the bioassay apparatus.
(§2) Mixtures of CO2 and ambient air were tested to determine the termite response to a range of CO2 concentrations. […] The CO2 concentration of the syringes was determined by using GC-MS-SIM analysis (see below) before each bioassay. […]
(§3) Procedure: For bioassays, termite workers were collected from plastic tubs by using a camel's hair brush and were placed into a holding container constructed from a 3 cm length of Teflon tubing (8 mm inside diameter). […] Bioassays were conducted for 15 min, after which the number of termites in each pitfall was recorded. […]

wireworm larvae = conditions: in vivo; cited from earlier work
Reticulitermes flavipes = test: T-tube choice-test behavioral bioassay with CO2; conditions: in vivo
Description: as §1, §2, §3

[1] = tested on: Reticulitermes virginicus; test: T-tube choice-test behavioral bioassay with CO2; conditions: in vivo
Description: as §1, §2, §3

Q: What does the source list for `O=C=O` [CO2, carbon dioxide]?
A: termite choice, CO2 side versus ambient air control side (Reticulitermes tibialis; 5 mmol/mol CO2 versus ambient air, 15 min): significantly greater than the number that moved to the control side; also recorded: chose the mmol/mol CO2 side significantly more often; also recorded: Significantly more termites (p<0.05) were attracted to the side containing 5 mmol/mol CO2 than to the control side; CO2 concentration of best attraction (Reticulitermes tibialis; in vivo): 5 mmol per mol; smallest CO2 difference responded to (wireworm larvae): 0.02%; CO2 concentration of best attraction (Reticulitermes flavipes): 10 mmol per mol; CO2 concentration of best attraction [1]: 10 mmol per mol
